From US20260224714A1, “CYCLING LYSOSOMAL TARGETING ANTIBODY CONJUGATES” (Lycia Therapeutics, Inc., priority 2023, published 2026) come the findings set out here.

Holding throughout (assay type): cell-based
One experiment has as its system human IgE. The experiment can be described thus: Degradation of initial and subsequent dose of target in HepG2 cells (Example 12, Table 30). The settings on record: normalized to unconjugated; for Normalized Fluorescence Post Wash Median Green: after wash, probe-conjugated IgE added for 4 hours, subsequent dose of target; for Normalized Fluorescence Precomplex Median Deep Red: precomplexed equimolar conjugate:IgE (cathepsin-cleavable quenched fluorescent probe) added for 2 hours, initial dose of target. A digest of the protocol:
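HepG2 cells exposed 2 h to conjugate precomplexed (30 min, 37 °C, equimolar) with 647-quenched-probe human IgE, acid/ice washed, then given 488-probe IgE without conjugate for 4 h. Median 647 (initial) and 488 (recycled) fluorescence by flow cytometry, normalised to unconjugated parent; mean of two wells.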

The next experiment relates to HepG2 cells. The experiment can be described thus: Externalization of conjugates from a cell following internalization (cycling), high-throughput format (Example 11). The note with it: 50 nM conjugate 1 hour, stringent washes, Alexa Fluor 647-labelled a-human IgG 1 hour, FACS, normalized to unconjugated parent protein, average of two replicate wells. The gist of the method: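 25,000 HepG2 cells incubated with conjugate for 1 h at indicated concentrations, then chilled and washed (DPBS, pH 5.2 acetate, pH 2.5 EBSS) to strip surface conjugate. Recycled conjugate captured by 1 μg/ml AF647 anti-human IgG in 37 °C EMEM for 1 h; median AF647 by flow cytometry, mean of two wells.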

The test system of experiment [1] is Alexa Fluor647 labelled human IgE. Description: Uptake assay: internalization of Alexa Fluor 647 labelled IgE in wild type HepG2 cells (Example 6). The note with it: equimolar conjugate and AF647 IgE, 2 hours, median cellular AF647 intensity by flow cytometry, normalized to unconjugated parent protein. A digest of the protocol:
(§1)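 HepG2 cells (wild type or ASGPR1/2 KO) pre-blocked with Fc receptor blocker, then exposed 2 h to conjugate precomplexed equimolar with AF647-labelled human IgE (30 min, room temperature) at 300 nM to 1.23 nM final. Median cellular AF647 by flow cytometry, normalized to unconjugated parent protein.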
(A flow cytometer gives signals particle by particle.)

Experiment [2] shares this test system. The experiment can be described thus: Uptake assay: internalization of Alexa Fluor 647 labelled IgE in ASGPR1/2 KO HepG2 cells (Example 6). The settings on record: equimolar conjugate and AF647 IgE, normalized to unconjugated parent protein. The gist of the method: as §1
For a further experiment, the system named is recombinant IgE. Description: Degradation of super-stoichiometric levels of target in HepG2 cells (Example 13, Table 31). The note with it: 1 nM conjugate and 25 nM IgE for three days, (A-B)/C IgE depleted relative to conjugate, average of two replicate wells. A digest of the protocol:
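HepG2 cells in EMEM/10% FBS were incubated with 1 nM conjugate plus 25 nM recombinant IgE for 72 h. IgE in medium at start and end quantified by MSD/ELISA-type assay; value is molar equivalents IgE depleted per conjugate, (initial − day-3 IgE)/conjugate concentration, mean of two wells.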

Experiment [3] concerns LysoLight-labelled human IgE. Description: Lysosomal degradation of LysoLight-labelled IgE in HepG2 cells, live cell imaging (Example 7). The note with it: equimolar conjugate:LysoLight IgE, area under the curve of deep red fluorescence over three days, normalized to unconjugated parent protein. A digest of the protocol: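 Conjugate precomplexed 30 min at room temperature with equimolar LysoLight-labelled human IgE, added to Fc-receptor-blocked HepG2 cells at final 100–1.23 nM. Red fluorescence, released on lysosomal cathepsin cleavage, imaged hourly for 72 h starting 1 h post-addition; area under the fluorescence–time curve taken as total degradation.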

With `CC(=O)N[C@@H]1[C@@H](O)[C@@H](O)[C@@H](CO)O[C@@H]1c1cc(COCCOCCNC(=O)NCCCC(CCCNC(=O)NCCOCCOCc2cc([C@H]3O[C@H](CO)[C@H](O)[C@H](O)[C@H]3NC(C)=O)on2)(CCCNC(=O)NCCOCCOCc2cc([C@H]3O[C@H](CO)[C@H](O)[C@H](O)[C@H]3NC(C)=O)on2)NC(=O)CCOCCOCCOCCNS(=O)(=O)c2ccc(N3C(=O)C=CC3=O)cc2)no1` [Compound 2325], in the experiment on human IgE, the “Normalized Fluorescence Post Wash Median Green” value amounted to 3.6 and the “Normalized Fluorescence Precomplex Median Deep Red” value is reported as 3.9. Further, the “Normalized Fluorescence” value in the experiment on HepG2 cells is 54.2. In experiment [1], the “Normalized Fluorescence 3.7 nM WT” value was 87.8 and the “Normalized Fluorescence 100 nM WT” value is recorded as 270.0. The “Normalized Fluorescence 100 nM ASGPR KO” value in experiment [2] is listed as 1.2. Further, in the experiment with recombinant IgE, the “Average Degradation (Molar equivalents)” value was determined as 6.9 Molar equivalents. In addition, in experiment [3], the “Normalized Fluorescence 3.7 nM” value worked out at 15.8 and the “Normalized Fluorescence 100 nM” value came to 3.5.

`CCC[C@H]1O[C@H](COC)[C@H](O)[C@H](O)[C@H]1Nc1nccc(OCCOCCOCCNC(=O)NCCCC(CCCNC(=O)NCCOCCOCCOc2ccnc(N[C@@H]3[C@@H](O)[C@@H](O)[C@@H](COC)O[C@@H]3CCC)n2)(CCCNC(=O)NCCOCCOCCOc2ccnc(N[C@@H]3[C@@H](O)[C@@H](O)[C@@H](COC)O[C@@H]3CCC)n2)NC(=O)CCOCCOCCOCCNS(=O)(=O)c2ccc(N3C(=O)C=CC3=O)cc2)n1` [Compound 2326]: in the experiment on human IgE, the “Normalized Fluorescence Post Wash Median Green” value worked out at 4.1 and the “Normalized Fluorescence Precomplex Median Deep Red” value is on record as 4.1. The “Normalized Fluorescence” value in the experiment with HepG2 cells was 57.7. In experiment [1], the “Normalized Fluorescence 3.7 nM WT” value stood at 89.7 and the “Normalized Fluorescence 100 nM WT” value is 287.9. Besides, in experiment [2], the “Normalized Fluorescence 100 nM ASGPR KO” value amounted to 1.1. Also, the “Average Degradation (Molar equivalents)” value in the experiment on recombinant IgE is listed as 9.0 Molar equivalents. In addition, in experiment [3], the “Normalized Fluorescence 3.7 nM” value is 17.2 and the “Normalized Fluorescence 100 nM” value came out at 3.7.

As to `O=C(CCOCCOCCOCCNS(=O)(=O)c1ccc(N2C(=O)C=CC2=O)cc1)NC(CCCNC(=O)NCCOCCOCCOCC(F)(F)c1cncc(N[C@H]2CO[C@H](CO)[C@H](O)[C@@H]2O)n1)(CCCNC(=O)NCCOCCOCCOCC(F)(F)c1cncc(N[C@H]2CO[C@H](CO)[C@H](O)[C@@H]2O)n1)CCCNC(=O)NCCOCCOCCOCC(F)(F)c1cncc(N[C@H]2CO[C@H](CO)[C@H](O)[C@@H]2O)n1` [Compound 2327], in the experiment with human IgE, the “Normalized Fluorescence Post Wash Median Green” value is 4.6 and the “Normalized Fluorescence Precomplex Median Deep Red” value was found to be 3.7. Moreover, the “Normalized Fluorescence” value in the experiment on HepG2 cells stood at 71.2. In experiment [1], the “Normalized Fluorescence 3.7 nM WT” value amounted to 133.1 and the “Normalized Fluorescence 100 nM WT” value was 268.8. Further, the “Normalized Fluorescence 100 nM ASGPR KO” value in experiment [2] is recorded as 1.0. The “Average Degradation (Molar equivalents)” value in the experiment with recombinant IgE is 9.2 Molar equivalents. In experiment [3], the “Normalized Fluorescence 3.7 nM” value stood at 24.0 and the “Normalized Fluorescence 100 nM” value is listed as 2.7.

With `O=C(CCOCCOCCOCCNS(=O)(=O)c1ccc(N2C(=O)C=CC2=O)cc1)NC(CCCNC(=O)NCCOCCOCCOCc1cn([C@H]2[C@H]3OC[C@](CO)(O3)[C@H](O)[C@@H]2O)nn1)(CCCNC(=O)NCCOCCOCCOCc1cn([C@H]2[C@H]3OC[C@](CO)(O3)[C@H](O)[C@@H]2O)nn1)CCCNC(=O)NCCOCCOCCOCc1cn([C@H]2[C@H]3OC[C@](CO)(O3)[C@H](O)[C@@H]2O)nn1` [Compound 2328], in the experiment with human IgE, the “Normalized Fluorescence Post Wash Median Green” value is given as 1.8 and the “Normalized Fluorescence Precomplex Median Deep Red” value worked out at 2.4. Also, the “Normalized Fluorescence” value with HepG2 cells is 15.1. In addition, in experiment [1], the “Normalized Fluorescence 3.7 nM WT” value is given as 29.7 and the “Normalized Fluorescence 100 nM WT” value is 146.5. The “Normalized Fluorescence 100 nM ASGPR KO” value in experiment [2] turned out to be 1.1. Also, in the experiment with recombinant IgE, the “Average Degradation (Molar equivalents)” value is −0.3 Molar equivalents. Also, in experiment [3], the “Normalized Fluorescence 3.7 nM” value came out at 4.4 and the “Normalized Fluorescence 100 nM” value is given as 2.5.

As for `CC(=O)N[C@@H]1[C@@H](O)[C@@H](O)[C@@H](CO)O[C@@H]1c1cn(CCOCCOCCNC(=O)NCCCC(CCCNC(=O)NCCOCCOCCn2cc([C@H]3O[C@H](CO)[C@H](O)[C@H](O)[C@H]3NC(C)=O)nn2)(CCCNC(=O)NCCOCCOCCn2cc([C@H]3O[C@H](CO)[C@H](O)[C@H](O)[C@H]3NC(C)=O)nn2)NC(=O)CCOCCOCCOCCNS(=O)(=O)c2ccc(N3C(=O)C=CC3=O)cc2)nn1` [Compound 2329], in the experiment on human IgE, the “Normalized Fluorescence Post Wash Median Green” value was determined as 3.0 and the “Normalized Fluorescence Precomplex Median Deep Red” value is reported as 3.3. In the experiment on HepG2 cells, the “Normalized Fluorescence” value came out at 40.3. In addition, in experiment [1], the “Normalized Fluorescence 3.7 nM WT” value stood at 56.3 and the “Normalized Fluorescence 100 nM WT” value is listed as 201.8. In addition, the “Normalized Fluorescence 100 nM ASGPR KO” value in experiment [2] is reported as 1.1. Besides, in the experiment on recombinant IgE, the “Average Degradation (Molar equivalents)” value turned out to be 4.7 Molar equivalents. Moreover, in experiment [3], the “Normalized Fluorescence 3.7 nM” value is recorded as 11.6 and the “Normalized Fluorescence 100 nM” value turned out to be 3.0.

Take `CCC[C@H]1O[C@H](CO)[C@H](O)[C@H](O)[C@H]1Nc1nccc(OCCOCCOCCNC(=O)NCCCC(CCCNC(=O)NCCOCCOCCOc2ccnc(N[C@@H]3[C@@H](O)[C@@H](O)[C@@H](CO)O[C@@H]3CCC)n2)(CCCNC(=O)NCCOCCOCCOc2ccnc(N[C@@H]3[C@@H](O)[C@@H](O)[C@@H](CO)O[C@@H]3CCC)n2)NC(=O)CCOCCOCCOCCNS(=O)(=O)c2ccc(N3C(=O)C=CC3=O)cc2)n1` [Compound 2330]: in the experiment with human IgE, the “Normalized Fluorescence Post Wash Median Green” value is listed as 2.9 and the “Normalized Fluorescence Precomplex Median Deep Red” value was 3.0. Also, in the experiment with HepG2 cells, the “Normalized Fluorescence” value stood at 42.9. Further, in experiment [1], the “Normalized Fluorescence 3.7 nM WT” value amounted to 54.5 and the “Normalized Fluorescence 100 nM WT” value stood at 166.6. Further, the “Normalized Fluorescence 100 nM ASGPR KO” value in experiment [2] amounted to 1.1. Moreover, the “Average Degradation (Molar equivalents)” value in the experiment with recombinant IgE is 2.8 Molar equivalents. In experiment [3], the “Normalized Fluorescence 3.7 nM” value worked out at 8.1 and the “Normalized Fluorescence 100 nM” value is on record as 2.4.

On to `CC(=O)N[C@H]1[C@H](OCCCCC(=O)NCCCNC(=O)CCOCC(COCCC(=O)NCCCNC(=O)CCCCO[C@@H]2O[C@H](CO)[C@H](O)[C@H](O)[C@H]2NC(C)=O)(COCCC(=O)NCCCNC(=O)CCCCO[C@@H]2O[C@H](CO)[C@H](O)[C@H](O)[C@H]2NC(C)=O)NC(=O)CCCCCCCCCCC(=O)NCCN2C(=O)C=CC2=O)O[C@H](CO)[C@H](O)[C@@H]1O` [Compound 2401-C], for which, in the experiment with human IgE, the “Normalized Fluorescence Post Wash Median Green” value was 1.2 and the “Normalized Fluorescence Precomplex Median Deep Red” value is 1.7. Besides, the “Normalized Fluorescence” value in the experiment on HepG2 cells is 3.2. In experiment [1], the “Normalized Fluorescence 3.7 nM WT” value is 10.3 and the “Normalized Fluorescence 100 nM WT” value was determined as 44.7. Also, in experiment [2], the “Normalized Fluorescence 100 nM ASGPR KO” value turned out to be 1.2. In the experiment with recombinant IgE, the “Average Degradation (Molar equivalents)” value is listed as −1.0 Molar equivalents. Besides, in experiment [3], the “Normalized Fluorescence 3.7 nM” value was 1.1 and the “Normalized Fluorescence 100 nM” value was 1.8.

With `CC(=O)N[C@H]1[C@H](OCCOCCOCCOCCNC(=O)CCOCC(COCCC(=O)NCCOCCOCCOCCO[C@@H]2O[C@H](CO)[C@H](O)[C@H](O)[C@H]2NC(C)=O)(COCCC(=O)NCCOCCOCCOCCO[C@@H]2O[C@H](CO)[C@H](O)[C@H](O)[C@H]2NC(C)=O)NC(=O)CCOCCOCCOCCOCCNC(=O)c2ccc(N3C(=O)C=CC3=O)cc2)O[C@H](CO)[C@H](O)[C@@H]1O` [Compound 2402-C], in the experiment on human IgE, the “Normalized Fluorescence Post Wash Median Green” value is on record as 1.6 and the “Normalized Fluorescence Precomplex Median Deep Red” value was found to be 2.1. Moreover, in the experiment with HepG2 cells, the “Normalized Fluorescence” value is listed as 10.5. Further, in experiment [1], the “Normalized Fluorescence 3.7 nM WT” value came out at 19.6 and the “Normalized Fluorescence 100 nM WT” value is on record as 84.3. Also, in experiment [2], the “Normalized Fluorescence 100 nM ASGPR KO” value was 1.3. Further, the “Average Degradation (Molar equivalents)” value in the experiment with recombinant IgE turned out to be 0.7 Molar equivalents. Further, in experiment [3], the “Normalized Fluorescence 3.7 nM” value is listed as 2.2 and the “Normalized Fluorescence 100 nM” value is 2.1.
